From patent US12398143B2, “Imidazopyrazine derivatives and the use thereof as medicament” (Boehringer Ingelheim International GmbH, priority 2019, dated 2025) come the findings set out here.

A word on the efflux ratio: it is the permeability from basolateral to apical divided by that in the opposite direction, in the common usage. A word on the Papp A→B: it is how fast a substance crosses the layer from the apical side. A higher Papp A→B goes with ready permeation. In general, half-life refers to how long it takes for the measured level to halve. One may read the IC50 as the concentration needed to halve the response being measured.

For data set [1], the target named is T1, human MDR1 (P-gp) (Homo sapiens, UniProt P08183).
T1 construct: expressed in transfected cells; host or cells: MDCKII (Madin-Darby canine kidney)
As to the kind of experiment: MDCK assay MDR-1 (p-GP) permeability. The data set is classed as in vitro ADME. To be noted: dog, MDCK-MDR1 monolayers; for efflux ratio at 2 h: pH 7.4, Papp (b-a)/Papp (a-b); for Papp A→B at 2 h: apical-to-basal, pH 7.4, 1 or 10 μM. The protocol: The MDCK assays provide information on the potential of a compound to pass the blood brain barrier. Permeability measurements across polarized, confluent MDCK-MDR1 cell monolayers grown on permeable filter supports are used as an in vitro absorption model: apparent permeability coefficients (PE) of the compounds across the MDCK-MDR1 cell monolayers are measured (pH 7.4, 37° C.) in apical-to-basal (AB) and basal-to-apical (BA) transport direction. The AB permeability (PEAB) represents drug absorption from the blood into the brain and the BA permeability (PEBA) drug efflux from the brain back into the blood via both, passive permeability as well as active transport mechanisms mediated by efflux and uptake transporters that are expressed on the MDCK-MDR1 cells, predominantly by the overexpressed human MDR1. Identical or similar permeabilities in both transport directions indicate passive permeation, vectorial permeability points to additional active transport mechanisms. Higher PEBA than PEAB (PEBA/PEAB>5) indicates the involvement of active efflux mediated by MDR1, which might compromise the goal to achieve sufficient brain exposure. Therefore, this assay provides valuable support for selection of compounds applicable for further in vivo testing. High permeability not limited by efflux at the blood brain barrier is a favourable characteristic for compounds that are to be used for drugs acting primarily in the CNS. Consequently, to ensure high permeability at the blood brain barrier, it is highly preferred to minimize the efflux (efflux<5) at MDR1 transporter.
Apparent permeability coefficients (Papp) of the compounds across the MDCK-MDR1 monolayers (MDCKII cells transfected with human MDR1 cDNA expression plasmid) are measured in apical-to-basal (AB) and basal-to-apical (BA) direction.
MDCK-MDR1 cells (6×10^5 cells/cm^2) are seeded on filter inserts (Corning, Transwell, polycarbonate, 0.4 μm pore size) and cultured for 9 to 10 days. Compounds dissolved in DMSO stock solution (1-20 mM) are diluted with HTP-4 aqueous buffer (128.13 mM NaCl, 5.36 mM KCl, 1 mM MgSO4, 1.8 mM CaCl2), 4.17 mM NaHCO3, 1.19 mM Na2HPO4, 0.41 mM NaH2PO4, 15 mM HEPES, 20 mM glucose, pH 7.4) supplemented with 0.25% BSA to prepare the transport solutions (final concentration: 1 or 10 μM, final DMSO <=0.5%). The transport solution is applied to the apical or basolateral donor side for measuring A-B or B-A permeability, respectively. The receiver side contains HTP-4 buffer supplemented with 0.25% BSA. Samples are collected at the start and end of experiment from the donor and at various time intervals for up to 2 hours also from the receiver side for concentration measurement by HPLC-MS/MS.
Sampled receiver volumes are replaced with fresh receiver solution. Efflux ratio is calculated dividing the Papp (b-a) values by the Papp (a-b) values.

Data set [2] is described as follows: Metabolic stability in human liver microsomes. The data set is classed as in vitro ADME. To be noted: pooled human liver microsomes, pH 7.6, 37° C., 1 mg/mL microsomal protein, 1 μM compound, NADPH 1 mM, read-out: Half-life - t½ human liver microsomes. The text has this:
Stability in human liver microsomes refers to the susceptibility of compounds to bio-transformation in the context of selecting and/or designing drugs with favorable pharmacokinetic properties. The primary site of metabolism for many drugs is the liver. Human liver microsomes contain the cytochrome P450s (CYPs), and thus represent a model system for studying drug metabolization in vitro. Enhanced stability in human liver microsomes is associated with several advantages, including increased bioavailability and adequate half-life, which can enable lower and less frequent dosing of patients. Thus, enhanced stability in human liver microsomes is a favorable characteristic for compounds that are to be used for drugs.
The metabolic degradation of the test compound was assayed at 37° C. with pooled human liver microsomes. The final incubation volume of […] per time point contains TRIS buffer pH 7.6 at room temperature (0.1 M), magnesium chloride (5 mM aqueous solution), microsomal protein (1 mg/mL for human) and the test compound at a final concentration of 1 μM. Following a short preincubation period at 37° C., the reactions were initiated by addition of betanicotinamide adenine dinucleotide phosphate, reduced form (NADPH, 1 mM), and terminated by transferring an aliquot into solvent after different time points. After centrifugation (10000 g, 5 min), an aliquot of the supernatant was assayed by LC-MS/MS for the amount of parent compound. The half-life was determined by the slope of the semi-logarithmic plot of the concentration-time profile.
(Liver microsomes are vesicles of endoplasmic reticulum, rich in cytochrome P450 enzymes.)

Data set [3] addresses T2, NMDA NR1/NR2B receptor (Homo sapiens, UniProt Q05586+Q13224).
T2 construct: host or cells: HEK293, tetracycline-inducible
As to the kind of experiment: NMDA NR1/NR2B FLIPR calcium assay in HEK293 cells. The data set is classed as cell-based. To be noted: HEK293 with tetracyclin-inducible NR1/NR2B; 20 μM glycine/1 μM glutamate; compounds of the invention; read-out: IC50 (in vitro affinity as obtained in the FLIPR assay). The protocol:
A human HEK293 cell line with tetracyclin-inducible expression of NMDA NR1/NR2B receptor was used as a test system for compound efficacy and potency. The cell line was purchased from ChanTest, Catalog #CT6121. Compound activity was determined by measuring the effect of compounds on intracellular calcium concentration induced by glycine/glutamate agonism in a FLIPRtetra system (Molecular Devices).
The cells were obtained as frozen cells in cryo-vials and stored until use at −150° C. Cells were grown in culture medium (DMEM/F12, 10% FBS, 5 μg/mL Blasticidin, 150 μg/mL Zeozin, 500 μg/mL Geneticin). […] For sub-culturing the cells were detached from flasks by Versene. For the assay, cells were detached, washed twice with induction medium (DMEM/F12 without glutamine, 10% FBS, 2 μg/mL Tetracycline, 2 mM Ketamine) and seeded to 384 well pure coat amine plates (BD 359324, 50000 cells per well in 50 μl) 48 h prior to assay in induction medium.
The test compounds were dissolved in 100% DMSO at a concentration of 10 mM and in a first step diluted in DMSO to a concentration of 5 mM, followed by serial dilution steps in 100% DMSO. Dilution factor and number of dilution steps may vary according to needs. Typically 8 different concentrations by 1:5 dilutions were prepared in duplicate, further intermediate dilutions (1:37.5) of the substances were carried out with aqueous assay buffer (137 mM NaCl, 4 mM KCl, 1.8 mM CaCl, 10 mM HEPES, 10 mM Glucose, pH 7,4) resulting in a compound concentration 3 times above the final test concentration and DMSO at 2.7% resulting in 0.9% final DMSO concentration in the assay.
At the assay day cells were washed 3× with assay buffer, 10 μL buffer remained in the wells after washing. 10 μL Ca kit loading buffer (AAT Bioquest) was added to the cells and the plates were incubated with lid for 60 minutes at r.t. 20 μl assay buffer containing 60 μM glycine (20 μM final) and 3 μM glutamate (1 μM final) was added to column 1-23. Fluorescence (indicating the calcium influx as a result of the NR1/NR2B ion channel activation) was read on the FLIPRtetra device for 60 seconds to monitor the glutamate induced effects. After 2 minutes 20 μL of compound or controls (row 1-22) in assay buffer were carefully added to the wells. […] The average of 2 measurements at 5 minutes and 5 min 10 seconds after compound addition is calculated and further used for IC50 calculations. Each assay microtiter plate contained wells (in column 23 or 24) with DMSO controls instead of compound as controls for glycine/glutamate induced fluorescence (high controls) and wells with 1 μM of a reference NR2b NAM as low controls (Compound 22; reference: Layton, Mark E et al, ACS Chemical Neuroscience 2011, 2(7), 352-362).
The output file of the reader contains the well number and measured average fluorescence units. For data evaluation and calculation, the measurement of the low control was set as 0% control and the measurement of the high control was set as 100% control. The IC50 values were calculated using the standard 4 parameter logistic regression formula. Calculation: [y=(a−d)/(1+(x/c)^B)+d], a=low value, d=high value; x=conc M; c=IC50 M; b=slope.

The structures appear in SMILES notation.

T1 sequence (P08183 whole entry): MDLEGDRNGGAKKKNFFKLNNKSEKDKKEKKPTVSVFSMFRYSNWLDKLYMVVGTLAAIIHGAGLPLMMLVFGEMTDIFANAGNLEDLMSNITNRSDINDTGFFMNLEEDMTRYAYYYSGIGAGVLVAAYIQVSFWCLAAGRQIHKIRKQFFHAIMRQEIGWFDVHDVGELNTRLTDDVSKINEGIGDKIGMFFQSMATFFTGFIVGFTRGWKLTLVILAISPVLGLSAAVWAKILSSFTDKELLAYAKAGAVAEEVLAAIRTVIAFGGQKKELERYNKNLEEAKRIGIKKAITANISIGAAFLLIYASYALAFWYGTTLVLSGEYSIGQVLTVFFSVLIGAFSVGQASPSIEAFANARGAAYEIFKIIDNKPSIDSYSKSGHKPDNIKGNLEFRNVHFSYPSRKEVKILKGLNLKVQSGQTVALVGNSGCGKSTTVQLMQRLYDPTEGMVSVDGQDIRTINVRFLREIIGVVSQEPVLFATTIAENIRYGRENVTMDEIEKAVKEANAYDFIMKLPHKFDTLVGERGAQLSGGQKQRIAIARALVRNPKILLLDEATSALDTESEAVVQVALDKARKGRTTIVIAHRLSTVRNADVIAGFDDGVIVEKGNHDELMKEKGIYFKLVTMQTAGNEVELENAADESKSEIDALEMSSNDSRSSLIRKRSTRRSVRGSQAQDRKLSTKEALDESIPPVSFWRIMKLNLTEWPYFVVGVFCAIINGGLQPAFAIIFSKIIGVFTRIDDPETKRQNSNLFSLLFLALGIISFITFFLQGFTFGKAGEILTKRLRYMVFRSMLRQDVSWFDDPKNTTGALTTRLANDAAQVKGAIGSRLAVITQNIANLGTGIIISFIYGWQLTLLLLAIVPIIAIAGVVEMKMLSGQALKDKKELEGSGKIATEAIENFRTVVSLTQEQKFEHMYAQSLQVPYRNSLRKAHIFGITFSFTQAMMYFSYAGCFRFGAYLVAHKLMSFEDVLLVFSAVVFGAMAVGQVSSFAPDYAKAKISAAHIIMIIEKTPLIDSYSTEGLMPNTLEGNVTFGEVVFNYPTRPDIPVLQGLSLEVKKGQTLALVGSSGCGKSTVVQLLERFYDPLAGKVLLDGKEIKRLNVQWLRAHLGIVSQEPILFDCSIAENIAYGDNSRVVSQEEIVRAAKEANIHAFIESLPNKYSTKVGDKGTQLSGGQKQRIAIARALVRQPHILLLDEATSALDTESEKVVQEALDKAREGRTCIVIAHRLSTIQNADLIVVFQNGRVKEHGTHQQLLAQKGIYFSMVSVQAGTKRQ
T2 sequence (Q13224 27-1484, other chains not shown): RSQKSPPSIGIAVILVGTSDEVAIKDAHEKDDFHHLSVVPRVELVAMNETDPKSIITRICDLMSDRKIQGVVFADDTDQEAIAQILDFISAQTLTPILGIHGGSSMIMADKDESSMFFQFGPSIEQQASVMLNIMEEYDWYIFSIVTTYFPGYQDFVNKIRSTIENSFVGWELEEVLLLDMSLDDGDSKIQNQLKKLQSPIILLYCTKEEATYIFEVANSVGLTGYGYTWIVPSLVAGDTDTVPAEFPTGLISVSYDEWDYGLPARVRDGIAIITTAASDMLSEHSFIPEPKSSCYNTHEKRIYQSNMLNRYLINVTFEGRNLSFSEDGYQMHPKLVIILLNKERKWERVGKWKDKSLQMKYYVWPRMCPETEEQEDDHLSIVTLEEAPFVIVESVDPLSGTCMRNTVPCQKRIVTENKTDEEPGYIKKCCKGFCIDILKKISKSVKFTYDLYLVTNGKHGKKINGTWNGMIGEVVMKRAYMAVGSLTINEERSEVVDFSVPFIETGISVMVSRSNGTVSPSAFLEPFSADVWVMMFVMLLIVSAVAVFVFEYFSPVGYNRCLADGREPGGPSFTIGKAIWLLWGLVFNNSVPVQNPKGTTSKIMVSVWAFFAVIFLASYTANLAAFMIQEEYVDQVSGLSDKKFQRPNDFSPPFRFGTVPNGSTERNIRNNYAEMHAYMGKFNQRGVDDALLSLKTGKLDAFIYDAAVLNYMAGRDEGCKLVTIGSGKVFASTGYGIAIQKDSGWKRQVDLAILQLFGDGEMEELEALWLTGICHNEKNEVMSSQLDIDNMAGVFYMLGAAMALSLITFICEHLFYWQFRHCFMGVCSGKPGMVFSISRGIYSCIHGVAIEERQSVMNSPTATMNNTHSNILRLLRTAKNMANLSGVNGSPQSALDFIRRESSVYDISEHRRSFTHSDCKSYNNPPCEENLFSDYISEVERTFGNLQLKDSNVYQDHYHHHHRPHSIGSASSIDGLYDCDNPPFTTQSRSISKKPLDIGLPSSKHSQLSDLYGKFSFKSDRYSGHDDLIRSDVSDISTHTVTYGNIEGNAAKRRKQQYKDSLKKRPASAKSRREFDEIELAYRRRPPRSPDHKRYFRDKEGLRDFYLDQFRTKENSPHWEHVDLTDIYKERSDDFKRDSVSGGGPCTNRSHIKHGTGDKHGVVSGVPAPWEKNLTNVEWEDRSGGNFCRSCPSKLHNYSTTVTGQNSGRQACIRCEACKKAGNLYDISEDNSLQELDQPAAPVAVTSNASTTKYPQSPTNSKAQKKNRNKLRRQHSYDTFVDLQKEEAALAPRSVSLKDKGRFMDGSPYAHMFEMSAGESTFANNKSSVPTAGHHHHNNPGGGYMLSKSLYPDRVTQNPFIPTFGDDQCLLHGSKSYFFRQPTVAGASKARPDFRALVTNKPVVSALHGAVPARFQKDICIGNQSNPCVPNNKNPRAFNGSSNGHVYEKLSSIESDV

As to `Cc1ccc(COC(=O)N2CCO[C@H](c3nc4nccnc4[nH]3)C2)c(F)c1` [Example 1], in data set [1], the efflux ratio at 2 h was determined as 1.6 and the Papp A→B at 2 h was 33 ×10⁻⁶ cm/s. Besides, the half-life at 1 μM in data set [2] stood at 31.5 min. In data set [3], the 50% inhibitory concentration (IC50) is 90 nM.

With `Cc1cccc(COC(=O)N2CCO[C@H](c3nc4nccnc4[nH]3)C2)c1F` [Example 3], in data set [1], the efflux ratio at 2 h came to 0.7 and the Papp A→B at 2 h stood at 61 ×10⁻⁶ cm/s. Also, in data set [2], the half-life at 1 μM was 8 min. The IC50 in data set [3] came out at 725 nM.

`O=C(OCc1ccccc1F)N1CCO[C@H](c2nc3nccnc3[nH]2)C1` [Example 4]: in data set [1], the efflux ratio at 2 h came out at 0.8 and the Papp A→B at 2 h is 57 ×10⁻⁶ cm/s. In data set [2], the half-life at 1 μM was over 130 min. Also, the IC50 in data set [3] turned out to be 382 nM.

Turning to `O=C(OCc1ccc(F)cc1F)N1CCO[C@H](c2nc3nccnc3[nH]2)C1` [Example 5], in data set [1], the efflux ratio at 2 h was determined as 1.4 and the Papp A→B at 2 h is 40 ×10⁻⁶ cm/s. Further, in data set [2], the half-life at 1 μM is over 130 min. For the same compound, the IC50 in data set [3] was 477 nM.

For the compound `O=C(OCc1ccc(F)cc1)N1CCO[C@H](c2nc3nccnc3[nH]2)C1` [Example 10], in data set [1], the efflux ratio at 2 h worked out at 2.9 and the Papp A→B at 2 h came to 23 ×10⁻⁶ cm/s. Besides, the half-life at 1 μM in data set [2] was over 130 min. In addition, the IC50 in data set [3] amounted to 735 nM.

As to `Cc1ccc(COC(=O)N2CCO[C@H](c3nc4nccnc4[nH]3)C2)cc1` [Example 12], in data set [1], the efflux ratio at 2 h is 1.8 and the Papp A→B at 2 h is 31 ×10⁻⁶ cm/s. The half-life at 1 μM in data set [2] was found to be 36 min. Moreover, in data set [3], the IC50 turned out to be 210 nM.
